This note sets out measurements from paper PMC6733907, “Structural basis for activation of a diguanylate cyclase required for bacterial predation in Bdellovibrio” (Nature Communications, 2019).

Where “and” joins values, the source holds several entries; their conditions need not be identical. Identical values can stand only once.

The stoichiometry N is the number of molecules, sites or subunits per partner or assembly.

In one assay the target is T1, DgcB (full-length) (Bdellovibrio bacteriovorus, UniProt Q6MPU8).
T1 construct: gene Bd0742; full-length aa 1-310 (own numbering), C-terminal thrombin-cleavable 8xHis tag, E. coli BL21 lambda DE3; dimer with c-di-GMP
T1 sequence (Q6MPU8 11-320): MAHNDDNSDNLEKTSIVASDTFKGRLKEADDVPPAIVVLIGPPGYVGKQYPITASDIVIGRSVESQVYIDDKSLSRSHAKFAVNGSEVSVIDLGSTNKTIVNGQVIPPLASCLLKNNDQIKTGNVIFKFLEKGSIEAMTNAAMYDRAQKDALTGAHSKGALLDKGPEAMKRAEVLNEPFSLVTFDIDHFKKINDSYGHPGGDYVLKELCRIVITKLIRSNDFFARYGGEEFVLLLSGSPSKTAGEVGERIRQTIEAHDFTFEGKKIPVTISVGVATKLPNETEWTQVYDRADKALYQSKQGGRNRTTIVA
The assay is described as follows: X-ray crystal structure, […] Å, co-purified ligand. It counts as binding. Particulars: I-site (RxxD: R218, D221) of both monomers; two c-di-GMP per dimer; product, feedback inhibitor.

Assay [1] has as its target T2, GGDEF-only construct of DgcB (Bdellovibrio bacteriovorus, UniProt Q6MPU8).
T2 construct: gene Bd0742; GGDEF domain only, aa 148-310 (own numbering), C-terminal thrombin-cleavable 8xHis tag, E. coli BL21 lambda DE3
T2 sequence (Q6MPU8 158-320): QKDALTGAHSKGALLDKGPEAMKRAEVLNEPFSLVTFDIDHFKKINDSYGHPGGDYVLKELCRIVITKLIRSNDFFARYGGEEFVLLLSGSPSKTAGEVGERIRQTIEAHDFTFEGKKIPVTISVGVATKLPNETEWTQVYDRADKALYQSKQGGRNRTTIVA
The assay is described as follows: co-purification of c-di-GMP with the protein. It counts as binding. Particulars: I-site.

The target of assay [2] is DgcB S15C-S73C-R218A (disulphide-stapled double cysteine mutant), full length (Bdellovibrio bacteriovorus HD100). In words: SEC; non-reducing gel-filtration (buffer without DTT) after overnight incubation with 5 mM oxidised glutathione, sample at 50 mg/ml; sizes calibrated to known standards.

Consider `Nc1nc2c(ncn2[C@@H]2O[C@@H]3COP(=O)(O)O[C@H]4[C@@H](O)[C@H](n5cnc6c(=O)[nH]c(N)nc65)O[C@@H]4COP(=O)(O)O[C@H]3[C@H]2O)c(=O)[nH]1` [c-di-GMP], for which the “X-ray crystal structure, 1.79 Å, co-purified ligand” value at DgcB (full-length) was “The dimer is stabilized by two molecules of c-di-GMP (classically intercalating via their planar bases)”. The “co-purification of c-di-GMP with the protein” value in assay [1] was “the GGDEF-only construct purifies with a small amount of c-di-GMP at the I-site”.
For “DgcB S15C-S73C-R218A (disulphide-stapled double cysteine mutant), full length (enzyme)”, in assay [2], the stoichiometry N was 4 and 2.
